Experimental data taken from patent US8044053B2, “Sulfonamide substituted pyrazoline compounds, their preparation and use as CB1 modulators” (Laboratories del Dr. Esteve, S.A., priority 2006, dated 2011).

Legend:
[1] = molecular target: CB1-receptor (UniProt P20272); assay: In-vitro determination of affinity (binding) to CB1-receptors, radioligand [3H]-CP55940; parameters: % inh; 10^−7 M; compound at 10^−7 M; species or system human or rat; conditions: compound at 10^−7 M
Description: (§1) I. In-Vitro Determination of Affinity to CB1/CB2-Receptors
(§2) The in-vitro determination of the affinity of the inventive substituted pyrazoline compounds to CB1/CB2-Rezeptors is carried out as described in the publication of Ruth A. Ross, Heather C. Brockie et al., “Agonist-inverse agonist characterisation at CB1 and CB2 cannabinoid receptors of L-759633, L759656 and AM630”, British Journal of Pharmacology, 126, 665-672, (1999), whereby the transfected human CB1 and CB2 receptors of Receptor Biology, Inc. are used. The radioligand used for both receptors is [^3H]-CP55940. The respective parts of the description is hereby incorporated by reference and forms part of the present disclosure.
(§3) Rat Cerebellum CB1 Binding
(§4) Binding affinity to CB1 receptor was evaluated according to a modification of the method described by Govaerts et al., Eur J Pharmac Sci 23, 233-243 (2004). The respective parts of the description is hereby incorporated by reference and forms part of the present disclosure.
(§5) Briefly, cerebellum from male wistar rats (250-300 g) were carefully dissected on ice and homogenates were prepared with Potter-Helveheim in a cold 50 mM Tris-HCl solution containing 5 mM MgCl2, 1 mM EDTA and 0.25 M sucrose, pH 7.4. The suspension was centrifuged at 1,000×g for 5 minutes. The supernatants were collected and centrifuged 50,000×g for 15 minutes. The resulting pellets were then resuspended in Tris-HCl buffer without sucrose, homogenised and incubated for 15 min at 37° C. in an orbital shaker bath and centrifuged again at 50,000×g for 15 min. Pellets were weighted, resuspended in Tris-HCl buffer without sucrose, homogenised with Ultraturrax at 13,500 rpm for 3×5 seconds and alicuoted in 0.9 ml volumes in Eppendorf tubes. Alicuotes were centrifuged at 20,800×g for 5 minutes, supernatants discarded and pellets were frozen at −80° C. until use. Total protein concentration was determined using the Bio-Rad Lowry method based kit. Competitive binding experiments were performed in presence of 1 nM [^3H]-CP 55,940 in siliconised glass tubes containing 100 μg protein/tube resuspended in 1 ml final volume of 50 mM Tris-HCl, 5 mM MgCl2, 1 mM EDTA, 0.5% (w/v) bovine serum albumin, pH 7.4. Compounds were present at various concentrations and the non specific binding was determined in the presence of 10 μM HU-210. After 1 hour incubation at 30° C., the suspension was rapidly filtered through 0.5% PEI pre-treated GF/B fiber filters on a 96-well harvester and washed 3 times with 3 ml ice-cold binding buffer without bovine serum albumin. Radioactivity on filters was measured with Wallac Winspectral 1414 counter by liquid scintillation in 6 ml Ecoscint H (National Diagnostics, U.K.). Assays were made in triplicates.
(§6) Binding data were analysed by non-linear regression with the software GraphPad Prism Version 3.03.
(§7) The binding of the pyrazoline compounds of general formulae I, Ia and Ib to CB1-receptors was determined according to the method described in the section Pharmacological Methods, Part I.

[2] = molecular target: CB1-receptor (UniProt P20272); assay: as above; parameters: IC50; Ki; species or system human or rat; conditions: Pharmacological Methods Part I
Description: as §1, §2, §3, §4, §5, §6, §7

% inh. 10^−7 M [1] [%]	IC50 [2] [µM]	Ki [2] [µM]	Compound
20.0	0.121		O=S(=O)(NCC1=NN(c2ccc(Cl)cc2Cl)C(c2ccc(Cl)cc2)C1)C1=C(Cl)NC2SC=CN12 (centres unmarked) [Example 32, 6-Chloro-7,7a-dihydro-imidazo[2,1-b]thiazole-5-sulfonic acid [5-(4-chloro-phenyl)-1-(2,4-dichloro-phenyl)-4,5-dihydro-1H-pyrazol-3-ylmethyl]-amide]
26.1	0.14		O=S(=O)(NCC1=NN(c2ccc(Cl)cc2Cl)C(c2ccc(Cl)cc2)C1)c1cccc(C(F)(F)F)c1 (centres unmarked) [Example 18, N-[5-(4-Chloro-phenyl)-1-(2,4-dichloro-phenyl)-4,5-dihydro-1H-pyrazol-3-ylmethyl]-3-trifluoromethyl-benzenesulfonamide]
53.8	0.0141		Cc1cccc(Cl)c1S(=O)(=O)NCC1=NN(c2ccc(Cl)cc2Cl)C(c2ccc(Cl)cc2)C1 (centres unmarked) [Example 34, 2-Chloro-N-[5-(4-chloro-phenyl)-1-(2,4-dichloro-phenyl)-4,5-dihydro-1H-pyrazol-3-ylmethyl]-6-methyl-benzenesulfonamide]
54.9	0.183		O=S(=O)(NCC1=NN(c2ccc(Cl)cc2Cl)C(c2ccc(Cl)cc2)C1)c1ccccc1Cl (centres unmarked) [Example 23, 2-Chloro-N-[5-(4-chloro-phenyl)-1-(2,4-dichloro-phenyl)-4,5-dihydro-1H-pyrazol-3-ylmethyl]-benzenesulfonamide]
39.4	0.13		O=S(=O)(Cc1ccccc1)NCC1=NN(c2ccc(Cl)cc2Cl)C(c2ccc(Cl)cc2)C1 (centres unmarked) [Example 12, N-[5-(4-Chloro-phenyl)-1-(2,4-dichloro-phenyl)-4,5-dihydro-1H-pyrazol-3-ylmethyl]-C-phenyl-methanesulfonamide]
74.0	0.0044		Cc1ccc(F)cc1S(=O)(=O)NCC1=NN(c2ccc(Cl)cc2Cl)C(c2ccc(Cl)cc2)C1 (centres unmarked) [Example 38, N-[5-(4-Chloro-phenyl)-1-(2,4-dichloro-phenyl)-4,5-dihydro-1H-pyrazol-3-ylmethyl]-5-fluoro-2-methyl-benzenesulfonamide]
48.6	0.07		N#Cc1cccc(S(=O)(=O)NCC2=NN(c3ccc(Cl)cc3Cl)C(c3ccc(Cl)cc3)C2)c1 (centres unmarked) [Example 10, N-((5-(4-chlorophenyl)-1-(2,4-dichlorophenyl)-4,5-dihydro-1H-pyrazol-3-yl)methyl)-3-cyanobenzenesulfonamid]
11.9	0.184		CC1(C)C2CCC1(CS(=O)(=O)NCC1=NN(c3ccc(Cl)cc3Cl)C(c3ccc(Cl)cc3)C1)C(=O)C2 (centres unmarked) [Example 7, N-[5-(4-Chloro-phenyl)-1-(2,4-dichloro-phenyl)-4,5-dihydro-1H-pyrazol-3-ylmethyl]-C-(7,7-dimethyl-2-oxo-bicyclo[2.2.1]hept-1-yl)-methanesulfonamide]
27.1	0.388		O=S(=O)(NCC1=NN(c2ccc(Cl)cc2Cl)C(c2ccc(Cl)cc2)C1)c1cccc(Cl)c1 (centres unmarked) [Example 1, 3-Chloro-N-[5-(4-chloro-phenyl)-1-(2,4-dichloro-phenyl)-4,5-dihydro-1H-pyrazol-3-ylmethyl]-benzenesulfonamide]
53.2	0.0206		Cc1cc(S(=O)(=O)NCC2=NN(c3ccc(Cl)cc3Cl)C(c3ccc(Cl)cc3)C2)c(C)cc1Cl (centres unmarked) [Example 39, 4-Chloro-N-[5-(4-chloro-phenyl)-1-(2,4-dichloro-phenyl)-4,5-dihydro-1H-pyrazol-3-ylmethyl]-2,5-dimethyl-benzenesulfonamide]
51.9	0.097	0.0439	Cc1cc(C)c(S(=O)(=O)NCC2=NN(c3ccc(Cl)cc3Cl)C(c3ccc(Cl)cc3)C2)c(C)c1 (centres unmarked) [Example 40, N-[5-(4-Chloro-phenyl)-1-(2,4-dichloro-phenyl)-4,5-dihydro-1H-pyrazol-3-ylmethyl]-2,4,6-trimethyl-benzenesulfonamide]
